# Source: PubChem BioAssay (NCI)
#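 The compound was tested at five concentrations on cells cultured in 96-well plates, with a 48-hour exposure period. TGI denotes the concentration required for complete inhibition of growth.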
# Legend:
# Assay in all cases: growth of human tumour cells (NCI), 48 h
# HCT-116 colon = tested on: HCT-116 colon
# KM12 colon = tested on: KM12 colon
# SNB-75 CNS = tested on: SNB-75 CNS
# DMS 114 small cell lung = tested on: DMS 114 small cell lung
# 786-0 renal = tested on: 786-0 renal
# HOP-92 NSCLC = tested on: HOP-92 NSCLC
# SN12C renal = tested on: SN12C renal
# OVCAR-3 ovarian = tested on: OVCAR-3 ovarian
# NCI-H460 lung = tested on: NCI-H460 lung
# CCRF-CEM leukemia = tested on: CCRF-CEM leukemia
# MOLT-4 leukemia = tested on: MOLT-4 leukemia
# SK-OV-3 ovarian = tested on: SK-OV-3 ovarian
# A498 renal = tested on: A498 renal
# DLD-1 colon = tested on: DLD-1 colon
# K-562 leukemia = tested on: K-562 leukemia
# SR leukemia = tested on: SR leukemia
# TK-10 renal = tested on: TK-10 renal
# UACC-62 melanoma = tested on: UACC-62 melanoma
# HCC-2998 colon = tested on: HCC-2998 colon
# EKVX NSCLC = tested on: EKVX NSCLC
# SK-MEL-28 melanoma = tested on: SK-MEL-28 melanoma
# OVCAR-5 ovarian = tested on: OVCAR-5 ovarian
# KM20L2 colon = tested on: KM20L2 colon
# NCI-H522 lung = tested on: NCI-H522 lung
# UACC-257 melanoma = tested on: UACC-257 melanoma
# NCI-H23 lung = tested on: NCI-H23 lung
# RPMI-8226 leukemia = tested on: RPMI-8226 leukemia
# UO-31 renal = tested on: UO-31 renal
# SNB-19 CNS = tested on: SNB-19 CNS
# ACHN renal = tested on: ACHN renal
# SW-620 colon = tested on: SW-620 colon
# SK-MEL-5 melanoma = tested on: SK-MEL-5 melanoma
# LOX IMVI melanoma = tested on: LOX IMVI melanoma
# M19-MEL melanoma = tested on: M19-MEL melanoma
# HL-60(TB) leukemia = tested on: HL-60(TB) leukemia
# HOP-18 NSCLC = tested on: HOP-18 NSCLC
# SNB-78 CNS = tested on: SNB-78 CNS
# U251 CNS = tested on: U251 CNS
# OVCAR-4 ovarian = tested on: OVCAR-4 ovarian
# SF-295 CNS = tested on: SF-295 CNS
# XF 498 CNS = tested on: XF 498 CNS
# HT29 colon = tested on: HT29 colon
# IGROV1 ovarian = tested on: IGROV1 ovarian
# HOP-62 NSCLC = tested on: HOP-62 NSCLC
# CAKI-1 renal = tested on: CAKI-1 renal
# HCT-15 colon = tested on: HCT-15 colon
# LXFL 529 NSCLC = tested on: LXFL 529 NSCLC
# SF-539 CNS = tested on: SF-539 CNS
# OVCAR-8 ovarian = tested on: OVCAR-8 ovarian
# DMS 273 small cell lung = tested on: DMS 273 small cell lung
# SF-268 CNS = tested on: SF-268 CNS
# M14 melanoma = tested on: M14 melanoma
# A549 NSCLC = tested on: A549 NSCLC
# COLO 205 colon = tested on: COLO 205 colon
# RXF 393 renal = tested on: RXF 393 renal
# NCI-H226 lung = tested on: NCI-H226 lung
# SK-MEL-2 melanoma = tested on: SK-MEL-2 melanoma
# MALME-3M melanoma = tested on: MALME-3M melanoma
structure (smiles),measurement,setting,value
O=C(CN(Cc1ccccc1)Cc1ccccc1)N1CCc2c([nH]c3ccccc23)C1c1cccnc1 (stereo not given),TGI,HCT-116 colon,16.2 µM
same,TGI,KM12 colon,26.3 µM
same,TGI,SNB-75 CNS,81.9 µM
same,TGI,DMS 114 small cell lung,72.8 µM
same,TGI,786-0 renal,33.4 µM
same,TGI,HOP-92 NSCLC,12.8 µM
same,TGI,SN12C renal,8.64 µM
same,TGI,OVCAR-3 ovarian,34 µM
same,TGI,NCI-H460 lung,89.9 µM
same,TGI,CCRF-CEM leukemia,41.4 µM
same,TGI,MOLT-4 leukemia,6.88 µM
same,TGI,SK-OV-3 ovarian,> 100 µM
same,TGI,A498 renal,61.5 µM
same,TGI,DLD-1 colon,> 100 µM
same,TGI,K-562 leukemia,> 100 µM
same,TGI,SR leukemia,30.6 µM
same,TGI,TK-10 renal,> 100 µM
same,TGI,UACC-62 melanoma,30.7 µM
same,TGI,HCC-2998 colon,> 100 µM
same,TGI,EKVX NSCLC,> 100 µM
same,TGI,SK-MEL-28 melanoma,> 100 µM
same,TGI,OVCAR-5 ovarian,34.7 µM
same,TGI,KM20L2 colon,25.5 µM
same,TGI,NCI-H522 lung,73.6 µM
same,TGI,UACC-257 melanoma,> 100 µM
same,TGI,NCI-H23 lung,79.3 µM
same,TGI,RPMI-8226 leukemia,4.53 µM
same,TGI,UO-31 renal,9.54 µM
same,TGI,SNB-19 CNS,> 100 µM
same,TGI,ACHN renal,> 100 µM
same,TGI,SW-620 colon,> 100 µM
same,TGI,SK-MEL-5 melanoma,20.1 µM
same,TGI,LOX IMVI melanoma,39.5 µM
same,TGI,M19-MEL melanoma,31.4 µM
same,TGI,HL-60(TB) leukemia,4.17 µM
same,TGI,HOP-18 NSCLC,> 100 µM
same,TGI,SNB-78 CNS,> 100 µM
same,TGI,U251 CNS,26.7 µM
same,TGI,OVCAR-4 ovarian,> 100 µM
same,TGI,SF-295 CNS,> 100 µM
same,TGI,XF 498 CNS,65.8 µM
same,TGI,HT29 colon,19.7 µM
same,TGI,IGROV1 ovarian,> 100 µM
same,TGI,HOP-62 NSCLC,> 100 µM
same,TGI,CAKI-1 renal,> 100 µM
same,TGI,HCT-15 colon,> 100 µM
same,TGI,LXFL 529 NSCLC,> 100 µM
same,TGI,SF-539 CNS,26.6 µM
same,TGI,OVCAR-8 ovarian,> 100 µM
same,TGI,DMS 273 small cell lung,82.8 µM
same,TGI,SF-268 CNS,> 100 µM
same,TGI,M14 melanoma,14.2 µM
same,TGI,A549 NSCLC,> 100 µM
COC(=O)C(=NNc1ccccc1[N+](=O)[O-])C(=O)OC,TGI,HCT-116 colon,> 100 µM
same,TGI,KM12 colon,> 100 µM
same,TGI,COLO 205 colon,> 100 µM
same,TGI,786-0 renal,> 100 µM
same,TGI,HOP-92 NSCLC,> 100 µM
same,TGI,SN12C renal,> 100 µM
same,TGI,NCI-H460 lung,> 100 µM
same,TGI,CCRF-CEM leukemia,> 100 µM
same,TGI,MOLT-4 leukemia,> 100 µM
same,TGI,SK-OV-3 ovarian,> 100 µM
same,TGI,A498 renal,> 100 µM
same,TGI,K-562 leukemia,> 100 µM
same,TGI,RXF 393 renal,> 100 µM
same,TGI,SR leukemia,> 100 µM
same,TGI,TK-10 renal,> 100 µM
same,TGI,HCC-2998 colon,> 100 µM
same,TGI,NCI-H226 lung,> 100 µM
same,TGI,EKVX NSCLC,> 100 µM
same,TGI,SK-MEL-28 melanoma,> 100 µM
same,TGI,OVCAR-5 ovarian,> 100 µM
same,TGI,KM20L2 colon,> 100 µM
same,TGI,NCI-H522 lung,> 100 µM
same,TGI,UACC-257 melanoma,> 100 µM
same,TGI,NCI-H23 lung,> 100 µM
same,TGI,SNB-19 CNS,> 100 µM
same,TGI,ACHN renal,> 100 µM
same,TGI,SW-620 colon,> 100 µM
same,TGI,LOX IMVI melanoma,> 100 µM
same,TGI,M19-MEL melanoma,> 100 µM
same,TGI,HL-60(TB) leukemia,> 100 µM
same,TGI,SK-MEL-2 melanoma,> 100 µM
same,TGI,MALME-3M melanoma,> 100 µM
same,TGI,HOP-18 NSCLC,> 100 µM
same,TGI,U251 CNS,> 100 µM
same,TGI,OVCAR-4 ovarian,> 100 µM
same,TGI,SF-295 CNS,> 100 µM
same,TGI,XF 498 CNS,> 100 µM
same,TGI,HT29 colon,> 100 µM
same,TGI,IGROV1 ovarian,> 100 µM
same,TGI,HOP-62 NSCLC,> 100 µM
same,TGI,CAKI-1 renal,> 100 µM
same,TGI,LXFL 529 NSCLC,> 100 µM
same,TGI,SF-539 CNS,> 100 µM
same,TGI,OVCAR-8 ovarian,> 100 µM
same,TGI,DMS 273 small cell lung,> 100 µM
same,TGI,SF-268 CNS,> 100 µM
same,TGI,A549 NSCLC,> 100 µM
